Reference: US11534457B2, “Use of dextran sulfate” (priority 2017, dated 2022)

System: severe traumatic brain injury (sTBI)
Assay: sTBI in rats, brain gene expression arrays and pathway analysis (Example 9)
Assay type: in vivo, Male Wistar rats
Design: key to z score, canonical pathway Dendritic Cell Maturation / z score, canonical pathway Adrenomedullin Signaling pathway / z score, canonical pathway Endothelin-1 Signaling / effect on canonical pathway Adrenomedullin Signaling pathway / effect on canonical pathway Endothelin-1 Signaling / effect on canonical pathway Dendritic Cell Maturation / Ingenuity canonical pathway Adrenomedullin signaling pathway, z score / Ingenuity canonical pathway FLT3 Signaling in Hematopoietic Progenitor Cells, z score / Ingenuity canonical pathway Opioid Signaling Pathway, z score / Ingenuity canonical pathway VDR/RXR Activation, z score / Ingenuity canonical pathway Neuropathic Pain Signaling In Dorsal Horn Neurons, z score / Ingenuity canonical pathway STAT3 Pathway, z score / Ingenuity canonical pathway IL-1 Signaling, z score / Ingenuity canonical pathway IL-6 Signaling, z score / Ingenuity canonical pathway NF-κB Signaling, z score / Ingenuity canonical pathway Role of NFAT in Cardiac Hypertrophy, z score / Ingenuity canonical pathway PPARα/RXRα Activation, z score: *: ambiguous effect
Method: The experimental protocol used in this study was approved by the Ethical Committee of the Catholic University of Rome, according to international standards and guidelines for animal care. Male Wistar rats of 300-350 g body weight were fed with standard laboratory diet and water ad libitum in a controlled environment. As the anesthetic mixture, the animals received 35 mg/kg b.w. ketamine and 0.25 mg/kg body weight midazolam by i.p. injection. Severe traumatic brain injury (sTBI) was induced by dropping a 450 g weight from 2 m height on to the rat head that had been protected by a metal disk previously fixed on the skull, according to the “weight drop” impact acceleration model (Marmarou et al., A new model of diffuse brain injury in rats. Part I: Pathophysiology and biomechanics. J Neurosurg. 1994; 80: 291-300). […] At the end of each period of treatment, rats were anesthetized again and then immediately sacrificed.
LMW-DS (Tikomed AB) was provided at a stock concentration of 20 mg/ml and was kept in a temperature-monitored refrigerator at 4° C. LMW-DS aliquots were diluted to the appropriate dosing concentration in sterile saline prior to delivery of a single subcutaneous injection.
Three doses of LMW-DS were administered subcutaneously 30 minutes post-TBI. The animals were sacrificed at 2 days post-TBI. The animals were divided into the following subgroups:
Three doses of LMW-DS were administered subcutaneously 30 minutes post-TBI. The animals were sacrificed at 7 days post-TBI. The animals were divided into the following subgroups:
An in vivo craniectomy was performed on all animals during anesthesia. After carefully removing the rat's skull, the brain was exposed and removed with a surgical spatula and quickly dropped in RNALater and preserved at 4° C. for further processing.
RNA extraction and array processing was carried out by SourceBioscience. The arrays used were the Agilent Rat expression arrays.
Statistical analysis was carried out using the Metaboanalyst software package. Gene expression changes of 10% with a p<0.05 were regarded as significant.
Pathway analysis of the differentially regulated genes was carried out using the Ingenuity pathway analysis package. The analysis was performed with special reference to pathways and molecular processes and diseases associated with neurodegenerative disease, including dementia, Alzheimer's disease, ALS, TBI and stroke, and with scarring and fibrosis, including glaucoma and normal pressure hydrocephalus (NPH) after subarachnoid haemorrhage.

[1] = TBI + 5 mg/kg LMW-DS, after 7 days, TBI: Inhibited
[2] = TBI + 15 mg/kg LMW-DS, 2 days after TBI
[3] = TBI + 15 mg/kg LMW-DS, 7 days after TBI
[4] = TBI + 15 mg/kg LMW-DS, 7 days after TBI, relative to control
[5] = TBI + 15 mg/kg LMW-DS, after 7 days, TBI: Activated
[6] = TBI + 15 mg/kg LMW-DS, after 7 days, TBI: Inhibited
[7] = TBI + 15 mg/kg repeat dose LMW-DS, after 7 days, TBI: Activated
[8] = TBI + 15 mg/kg repeat dose LMW-DS, after 7 days, TBI: Inhibited

## low molecular weight dextran sulfate [LMW-DS]
[1]
  Diseases or functions annotation: Organization of cytoskeleton: Activated
  Diseases or functions annotation: Pelvic tumor: Activated
  Diseases or functions annotation: Proliferation of connective tissue cells: Inhibited
  Diseases or functions annotation: Proliferation of epithelial cells: Inhibited
  Diseases or functions annotation: Quantity of cells: Activated
  Diseases or functions annotation: Quantity of connective tissue: Activated
  Diseases or functions annotation: Secretion of molecule: Activated
  Diseases or functions annotation: Size of body: Activated
  Diseases or functions annotation: Solid tumor: Activated
  Diseases or functions annotation: Synthesis of lipid: Activated
  Diseases or functions annotation: Transcription: Activated
  Diseases or functions annotation: Transcription of RNA: Activated
  Diseases or functions annotation: Transport of molecule: Activated
  Diseases or functions annotation: Tumorigenesis of tissue: Inhibited
  Diseases or functions annotation: Vasculogenesis: Activated
[2]
  Diseases or functions annotation: Apoptosis: Inhibited
  Diseases or functions annotation: Apoptosis of tumor cell lines: Activated
  Diseases or functions annotation: Behavior: Inhibited
  Diseases or functions annotation: Cell death: Inhibited
  Diseases or functions annotation: Necrosis: Inhibited
  Diseases or functions annotation: Quantity of blood cells: Inhibited
  Diseases or functions annotation: Quantity of cells: Inhibited
  Diseases or functions annotation: Quantity of lymphocytes: Inhibited
[3]
  Ingenuity canonical pathway: Endothelin-1 Signaling: Activated
  Ingenuity canonical pathway: Phospholipase C Signaling: Activated
  Ingenuity canonical pathway: cAMP-mediated signaling: Activated
  z score: Abdominal neoplasm: −0.272
  z score: Apoptosis: −0.256
  z score: Apoptosis of tumor cell lines: 0.783
  z score: Cancer: 1.705
  z score: Carcinoma: 1.067
  z score: Cell death: −1.269
  z score: Cell death of tumor cell lines: 0.178
  z score: Cell movement of myeloid cells: 1.197
  z score: Development of connective tissue cells: 0.766
  z score: Development of malignant tumor: −0.774
  z score: Differentiation of bone cells: 0.903
  z score: Epithelial neoplasm: 0.775
  z score: Extracranial solid tumor: 1.474
  z score: Frequency of tumor: −1.519
  z score: Genitourinary tumor: 1.746
  z score: Incidence of tumor: −0.865
  z score: Leukocyte migration: 2.365
  z score: Necrosis: 0.213
  z score: Non-melanoma solid tumor: 1.121
  z score: Quantity of Ca^2+: 0.224
  z score: Quantity of cells: 0.991
  z score: Solid tumor: 0.992
  z score: Transcription: 0.747
  z score: Transcription of RNA: 0.517
  z score: Tumorigenesis of epithelial neoplasm: 0.152
  z score: Tumorigenesis of tissue: 0.918
[4]
  Ingenuity canonical pathway Adrenomedullin signaling pathway, z score: *
  Ingenuity canonical pathway Endothelin-1 Signaling, z score: 1
  Ingenuity canonical pathway Phospholipase C Signaling, z score: 2
  Ingenuity canonical pathway cAMP-mediated signaling, z score: 1
[5]
  Diseases or functions annotation: Apoptosis: Inhibited
  Diseases or functions annotation: Apoptosis of tumor cell lines: Activated
  Diseases or functions annotation: Cell death: Inhibited
  Diseases or functions annotation: Cell death of tumor cell lines: Activated
  Diseases or functions annotation: Development of malignant tumor: Inhibited
  Diseases or functions annotation: Extracranial solid tumor: Activated
  Diseases or functions annotation: Frequency of tumor: Inhibited
  Diseases or functions annotation: Incidence of tumor: Inhibited
  Diseases or functions annotation: Necrosis: Activated
[6]
  Diseases or functions annotation: Abdominal neoplasm: Inhibited
  Diseases or functions annotation: Cancer: Activated
  Diseases or functions annotation: Carcinoma: Activated
  Diseases or functions annotation: Cell movement of myeloid cells: Activated
  Diseases or functions annotation: Development of carcinoma: Activated
  Diseases or functions annotation: Development of connective tissue cells: Activated
  Diseases or functions annotation: Differentiation of bone cells: Activated
  Diseases or functions annotation: Epithelial neoplasm: Activated
  Diseases or functions annotation: Genitourinary tumor: Activated
  Diseases or functions annotation: Leukocyte migration: Activated
  Diseases or functions annotation: Non-melanoma solid tumor: Activated
  Diseases or functions annotation: Quantity of cells: Activated
  Diseases or functions annotation: Solid tumor: Activated
  Diseases or functions annotation: Transcription: Activated
  Diseases or functions annotation: Transcription of RNA: Activated
  Diseases or functions annotation: Tumorigenesis of epithelial neoplasm: Activated
  Diseases or functions annotation: Tumorigenesis of tissue: Activated
[7]
  Diseases or functions annotation: Digestive organ tumor: Inhibited
  Diseases or functions annotation: Extracranial solid tumor: Activated
  Diseases or functions annotation: Gastrointestinal tumor: Inhibited
  Diseases or functions annotation: Hematologic cancer: Inhibited
  Diseases or functions annotation: Hematopoietic neoplasm: Inhibited
  Diseases or functions annotation: Obesity: Activated
  Diseases or functions annotation: Seizure disorder: Activated
  Diseases or functions annotation: Skin lesion: Activated
[8]
  Diseases or functions annotation: Abdominal cancer: Inhibited
  Diseases or functions annotation: Abdominal neoplasm: Inhibited
  Diseases or functions annotation: Adenocarcinoma: Inhibited
  Diseases or functions annotation: Branching of cells: Activated
  Diseases or functions annotation: Carcinoma: Inhibited
  Diseases or functions annotation: Cell movement: Activated
  Diseases or functions annotation: Cell-cell contact: Activated
  Diseases or functions annotation: Concentration of hormone: Activated
  Diseases or functions annotation: Concentration of lipid: Inhibited
  Diseases or functions annotation: Dendritic growth/branching: Inhibited
  Diseases or functions annotation: Development of connective tissue cells: Inhibited
  Diseases or functions annotation: Development of gap junctions: Activated
  Diseases or functions annotation: Development of neurons: Activated
  Diseases or functions annotation: Developmental process of synapse: Activated
